Experimental data: US8217176B2, “Fused heterocyclic derivative and use thereof” (Takeda Pharmaceutical Company Limited, priority 2008, dated 2012)

How the values were obtained:
[1] = system: NIH-3T3/Gli reporter cells; assay: Evaluation of compound: Shh-N-induced luciferase activity in NIH-3T3/Gli reporter cells (Smo inhibitory action); assay type: cell-based; settings: 48 hr; for inhibition at 1 µM: NIH3T3, 1 μM compound, mouse Shh-N end fragment supernatant, read-out: inhibition rate (%) at 1 μM
Experimental: HEK293 cells were grown in D-MEM medium (Invitrogen) containing 10% fetal bovine serum in a 10 cm dish and pcDNA3.1/mShh-N was introduced into the cells using FuGENE6 (Roche Applied Science). Thereafter, the HEK293 cells were cultured in a carbon dioxide gas incubator at 37° C. for 24 hours, and the medium was exchanged with D-MEM medium (Invitrogen) containing 2% fetal bovine serum. After culturing for 48 hr, a culture supernatant containing recombinant type mouse Shh-N end fragment was obtained by filtration using a filter ([…]).
Using D-MEM (Invitrogen) containing 10% fetal bovine serum, expression plasmid pcDNA3.1 and Gli reporter plasmid (pGL3/δ-cry promoter, 8×Gli binding site) produced by the method of Experimental Example 1 were introduced into NIH-3T3 cells grown in a 10 cm dish by the use of FuGENE6 (Roche Applied Science).
After culture for 24 hr, the cells were recovered, suspended in D-MEM medium containing 10% fetal bovine serum and supplemented with Geneticin (Life Technologies Oriental, Inc.) to a final concentration of 500 μg/ml, diluted to 10^4 cells/ml, plated on a 96 well plate, and cultured in a carbon dioxide gas incubator at 37° C. to give Geneticin resistant transformed cell line.
The obtained transformed cell line was cultured in a 96 well plate, mouse Shh-N end fragment obtained in Experimental Example 3 was added, and NIH-3T3/Gli reporter cell, which is a cell line capable of induction of luciferase expression, was selected.
NIH-3T3/Gli reporter cells cultured in D-MEM (Invitrogen) containing 10% fetal bovine serum were plated in a 96 well white plate at 1×10^4 cells/well, and cultured overnight in a carbon dioxide gas incubator at 37° C. The medium was removed, a compound (50 μl) and culture supernatant of mouse Shh-N end fragment-expressing HEK293 (D-MEM medium containing 2% fetal bovine serum, 50 μl) were added, and the cells were cultured for 48 hr in a carbon dioxide gas incubator at 37° C. Bright-Glo (Promega, 50 μl) was added, and the mixture was stirred, after which luciferase activity was measured by EnVision (PerkinElmer). The inhibition rate was calculated based on the luciferase activity of the control without addition of the compound as 100. The concentration of the compound and the inhibition rate were analyzed by PRISM3.00 (software of GraphPad), based on which the IC50 value (compound concentration necessary for achieving 50% of the maximum value of inhibition rate) of the compound was calculated.

[2] = system: mouse medulloblastoma allogeneic transplantation model; assay: In vivo anti-tumor test, mouse medulloblastoma allogeneic transplantation model; settings: 6.25 mg/kg orally twice a day for 2 weeks; nude mouse, subcutaneous medulloblastoma from Patched 1(+/-), p53(-/-) mouse; end of administration
Experimental: According to the description in Sasaki, K. et al., (2006) Cancer Res. 66: 4215-4222, an anti-tumor effect of a compound was evaluated using a mouse medulloblastoma allogeneic transplantation model. To be precise, Patched 1 gene mutant mouse (lineage name: Ptch1tm1Mps/J) was purchased from The Jackson Laboratory and p53 gene mutant mouse (lineage name: P53N4-M, Nomenclature: B6.129-Trp53tm/BrdN4) was purchased from Taconic, and a mouse of Patched 1(+/−), p53(−/−) phenotype was prepared by mating. The tumor tissue of medulloblastoma spontaneously occurred in the cerebellum of 7- to 9-week-old Patched 1(+/−), p53(−/−) mouse was taken and subcutaneously transplanted into a nude mouse (lineage name: CAnN.Cg-Foxn1/CrlCrlj).
An anti-tumor test was performed using a tumor passaged by subcutaneous transplantation. A tumor mass was isolated by a 40 μm cell strainer (BD Biosciences, Cat. No. 352340), a tumor suspension was prepared with Leibovitz's L-15 medium (GIBCO, Cat. No. 11415-114) in a 2-fold amount relative to the tumor mass weight, mixed with an equivalent amount of matrigel (BD Biosciences, Cat. No. 356237), and subcutaneously transplanted to a mouse at […] per transplantation site. The tumor diameter after transplantation was measured and, when the tumor size reached 150-250 mm^3, the anti-tumor test was started using 5 mice per group.
The test compound was prepared to achieve a dose of 6.25 mg/kg with a 0.5% methylcellulose (Shin-Etsu Chemical Co., Ltd., Cat. No. SM-100) suspension, and orally administered twice a day for 2 weeks. The tumor size was calculated based on the longer diameter and shorter diameter of the tumor measured with an electron vernier caliper. After the start of the test, the tumor size was measured every 2 or 3 days and the growth rate of the tumor size was calculated. A tumor growth inhibitory effect of 95% or above was confirmed in each test compound administration group.
The tumor growth rate and the results of a significant difference test by the administration of each test compound are shown in the Table. The growth rate of the tumor size (T/C) was calculated according to: growth rate (T/C)=((tumor size of compound administration group at the end of administration)−(tumor size of compound administration group at the start of administration))/((tumor size of control group at the end of administration)−(tumor size of control group at the start of administration))×100.

Structure (SMILES) | inhibition at 1 µM [1] | IC50 ([1]; NIH3T3, mouse Shh-N end fragment supernatant, read-out: IC50 value (compound concentration necessary for achieving 50% of the maximum value of inhibition rate)) | T/C (%) growth rate of the tumor size [2]
COc1c(C(=O)NC2CCN(CCO)CC2)n(C)c2c1c(=O)n(CC(=O)c1ccccc1)c1ccccc21 [Example 79, N-[1-(2-hydroxyethyl)piperidin-4-yl]-3-methoxy-1-methyl-4-oxo-5-(2-oxo-2-phenylethyl)-4,5-dihydro-1H-pyrrolo[3,2-c]quinoline-2-carboxamide] | 100% | ≤ 1000 nM | 0.8%
COc1c(C(=O)NC2CCN(C(=O)CO)CC2)n(C)c2c1c(=O)n(CC(=O)c1ccccc1)c1ccccc21 [Example 124, N-[1-(hydroxyacetyl)piperidin-4-yl]-3-methoxy-1-methyl-4-oxo-5-(2-oxo-2-phenylethyl)-4,5-dihydro-1H-pyrrolo[3,2-c]quinoline-2-carboxamide] | 100% |  | 2.0%
CCOc1c(C(=O)NC2CCN(C(=O)CO)CC2)n(C)c2cc(CC)n(CC(=O)c3ccccc3)c(=O)c12 [Example 139, 3-ethoxy-6-ethyl-N-[1-(hydroxyacetyl)piperidin-4-yl]-1-methyl-4-oxo-5-(2-oxo-2-phenylethyl)-4,5-dihydro-1H-pyrrolo[3,2-c]pyridine-2-carboxamide] | 100% |  | 0.4%
Cc1cc2c(c(OCC(F)(F)F)c(C(=O)NC3CCN(C(=O)CO)CC3)n2C)c(=O)n1CC(=O)c1ccccc1 [Example 140, N-[1-(hydroxyacetyl)piperidin-4-yl]-1,6-dimethyl-4-oxo-5-(2-oxo-2-phenylethyl)-3-(2,2,2-trifluoroethoxy)-4,5-dihydro-1H-pyrrolo[3,2-c]pyridine-2-carboxamide] | 100% |  | 5.3%
CCc1cc2c(c(OCC(F)(F)F)c(C(=O)NC3CCN(C(=O)CO)CC3)n2C)c(=O)n1CC(=O)c1ccccc1 [Example 143, 6-ethyl-N-[1-(hydroxyacetyl)piperidin-4-yl]-1-methyl-4-oxo-5-(2-oxo-2-phenylethyl)-3-(2,2,2-trifluoroethoxy)-4,5-dihydro-1H-pyrrolo[3,2-c]pyridine-2-carboxamide] | 100% |  | 0.0%
COc1c(C(=O)NC2CCN(C(=O)CO)CC2)n(C)c2c1c(=O)n(CC(=O)c1ccccc1)c1ccncc21 [Example 644, N-[1-(hydroxyacetyl)piperidin-4-yl]-3-methoxy-1-methyl-4-oxo-5-(2-oxo-2-phenylethyl)-4,5-dihydro-1H-pyrrolo[3,2-c][1,6]naphthyridine-2-carboxamide] | 100% |  | 
CCOc1c(C(=O)NC2CCN(C(=O)CO)CC2)sc2cc(CC)n(CC(=O)c3ccccc3)c(=O)c12 [Example 650, 3-ethoxy-6-ethyl-N-[1-(hydroxyacetyl)piperidin-4-yl]-4-oxo-5-(2-oxo-2-phenylethyl)-4,5-dihydrothieno[3,2-c]pyridine-2-carboxamide] | 100% |  | 
CCc1cc2c(c(OCC(F)(F)F)c(C(=O)NC3CCN(C(=O)CO)CC3)n2C)c(=O)n1Cc1ccccc1 [Example 654, 5-benzyl-6-ethyl-N-[1-(hydroxyacetyl)piperidin-4-yl]-1-methyl-4-oxo-3-(2,2,2-trifluoroethoxy)-4,5-dihydro-1H-pyrrolo[3,2-c]pyridine-2-carboxamide] | 100% |  | 
CCc1cc2c(c(OCC(F)(F)F)c(C(=O)NC3CCN(C(=O)CO)CC3)n2C)c(=O)n1CC(=O)c1cccc(OC)c1 [Example 656, 6-ethyl-N-[1-(hydroxyacetyl)piperidin-4-yl]-5-[2-(3-methoxyphenyl)-2-oxoethyl]-1-methyl-4-oxo-3-(2,2,2-trifluoroethoxy)-4,5-dihydro-1H-pyrrolo[3,2-c]pyridine-2-carboxamide] | 100% |  | 
CCc1cc2c(c(OCC(F)(F)F)c(C(=O)NC3CCN(C(=O)CO)CC3)n2C)c(=O)n1CC(=O)c1cccc(Cl)c1 [Example 657, 5-[2-(3-chlorophenyl)-2-oxoethyl]-6-ethyl-N-[1-(hydroxyacetyl)piperidin-4-yl]-1-methyl-4-oxo-3-(2,2,2-trifluoroethoxy)-4,5-dihydro-1H-pyrrolo[3,2-c]pyridine-2-carboxamide] | 100% |  | 
CCc1cc2c(c(OCC(F)(F)F)c(C(=O)NC3CCN(C(=O)CO)CC3)n2C)c(=O)n1Cc1ccccc1OC [Example 658, 6-ethyl-N-[1-(hydroxyacetyl)piperidin-4-yl]-5-(2-methoxybenzyl)-1-methyl-4-oxo-3-(2,2,2-trifluoroethoxy)-4,5-dihydro-1H-pyrrolo[3,2-c]pyridine-2-carboxamide] | 100% |  | 
CCc1cc2c(c(OCC(F)(F)F)c(C(=O)NC3CCN(C(=O)CO)CC3)n2C)c(=O)n1Cc1ccccc1Cl [Example 660, 5-(2-chlorobenzyl)-6-ethyl-N-[1-(hydroxyacetyl)piperidin-4-yl]-1-methyl-4-oxo-3-(2,2,2-trifluoroethoxy)-4,5-dihydro-1H-pyrrolo[3,2-c]pyridine-2-carboxamide] | 100% |  | 
CCc1cc2c(c(OCC(F)(F)F)c(C(=O)NC3CCN(C(=O)CO)CC3)n2C)c(=O)n1CCc1ccccc1 [Example 661, 6-ethyl-N-[1-(hydroxyacetyl)piperidin-4-yl]-1-methyl-4-oxo-5-(2-phenylethyl)-3-(2,2,2-trifluoroethoxy)-4,5-dihydro-1H-pyrrolo[3,2-c]pyridine-2-carboxamide] | 100% |  | 
